Like-named read-outs stand apart in the source and are kept apart here.
Columns and labels:
[1] = system: iNOS; test: iNOS inhibitory activity in LPS-induced RAW264.7 macrophages (nitrite, Griess reagent); format: cell-based; settings: Mus musculus
Procedure: The RAW264.7 macrophage cells were grown on DMEM media, supplemented with 10% FBS and 1% P/S (100 U/ml and […], respectively). The RAW264.7 macrophage cells were kept in DMEM at 37 °C and 5% CO2. For the anti-inflammatory assays, cells were used at 60% confluency after a 24-hour acclimatization period.
Stock solutions of the extract, fractions (1 mg/mL) and the isolated compounds (1000 μM) were made by dissolving in 0.1% DMSO in PBS (pH 7.2). For experiments, they were further diluted with DMEM to obtain the desired concentration. In a 96-well plate, the RAW264.7 macrophages were seeded (4 × 10^3 cells per well) overnight, then washed with DMEM. The macrophages were pre-treated with various concentrations of the extract, fractions (125- 0.98 µg/mL), isolated compounds, and standard drugs (125 - 0.06 µM) for 30 min, and further incubated with LPS (1 μg/mL) for 24 h. For the negative control, cells were treated with 0.1% DMSO (negative control LPS-). After incubation, the monolayer of […] cells were washed with ice-cold PBS (pH 7.2), trypsinized, and treated with lysis buffer (1% Triton X-100, 50 mMTris–HCl, pH 7.4, 0.2% sodium dodecyl sulfate, 0.2% sodium deoxycholate, 1 mM phenylmethylsulfonyl fluoride, 1 mM sodium ethylenediaminetetraacetate, 5 μg/mL of leupeptin, 5 μg/mL of aprotinin) then centrifuged (5000 rpm for 10 min) to collect the supernatant, The cell lysates were stored at − 80 °C utilized for anti-inflammatory assays.
The inhibitory activity of Inducible nitric oxide synthase (iNOS) was determined in terms of nitric oxide (NO) concentration by measuring the quantity of nitrite in the cell culture supernatant using Griess reagent. Equal volumes of each cell lysate (100 µL) and Griess reagent (1% sulfanilamide, 0.1% naphthylethylenediamine dihydrochloride, and 5% phosphoric acid) were mixed and incubated at room temperature for 10 min. Using a microplate reader, absorbances at 540 nm were measured. Parthenolide served as a positive control. The % inhibition was calculated using the following formula:
iNOS % Inhibition= [(OD control−OD sample)/ OD control x 100].

[2] = DPPH radical scavenging assay; settings: for IC50: isolated compounds and Trolox
Procedure: The extract and fractions were prepared in dimethyl sulfoxide (DMSO) at a concentration of 1mg/mL, while the isolated compounds were tested in 500 µM.
The 2,2-diphenyl-1-picrylhydrazyl (DPPH) assay was performed as described previously. One hundred μL of DPPH reagent (freshly prepared as 0.1% in methanol) was mixed with equal volume of each sample. Then, the solutions were left in the dark at room temperature for […]. Trolox (6-hydroxy-2,5,7,8-tetramethylchroman-2-carboxylic acid) was used as a positive control. The absorbances were measured at 517 nm. Data are represented as means ± SD according to the following equation:
Percentage inhibition = [(Average absorbance of blank - average absorbance of the test)/(Average absorbance of blank)] x 100
The IC50 of each tested sample was determined.

[3] = molecular target: AChE (Homo sapiens, UniProt P22303); test: biochemical
Procedure: (§1) The cholinesterase inhibitory activity was determined colorimetrically as previously published method with slight modifications. […] In a 96-well plate, 170 μl Tris-HCl buffer (200 mM, pH 7.5) was mixed with 20 μL of each tested sample solution and 20 μL of 0.1 U/ml enzyme solution (Ache or BChE) containing 0.1% bovine serum albumin in the same buffer. Dithio-bis-(2-nitrobenzoic acid) DTNB, an indicator, was added after 10 min of incubation at 25 °C (0.69 mM in tris buffer). […] In the control assays without the inhibitors, the tested samples were replaced by DMSO (20 μl) and their absorbance values were recorded (Reading B). Regarding the blank assays, the buffer (20 μL) was added instead of the enzyme.
(§2) The % inhibition was calculated using the following formula:
(§3) % of inhibition = [1− (corrected A/corrected B)] * 100

[4] = molecular target: BChE (Homo sapiens, UniProt P06276); test: biochemical
Procedure: as §1, §2, §3

[5] = LPS-induced RAW264.7 macrophages, isolated compounds and Parthenolide, read-out: iNOS IC50

Chain of AChE (P22303 32-614): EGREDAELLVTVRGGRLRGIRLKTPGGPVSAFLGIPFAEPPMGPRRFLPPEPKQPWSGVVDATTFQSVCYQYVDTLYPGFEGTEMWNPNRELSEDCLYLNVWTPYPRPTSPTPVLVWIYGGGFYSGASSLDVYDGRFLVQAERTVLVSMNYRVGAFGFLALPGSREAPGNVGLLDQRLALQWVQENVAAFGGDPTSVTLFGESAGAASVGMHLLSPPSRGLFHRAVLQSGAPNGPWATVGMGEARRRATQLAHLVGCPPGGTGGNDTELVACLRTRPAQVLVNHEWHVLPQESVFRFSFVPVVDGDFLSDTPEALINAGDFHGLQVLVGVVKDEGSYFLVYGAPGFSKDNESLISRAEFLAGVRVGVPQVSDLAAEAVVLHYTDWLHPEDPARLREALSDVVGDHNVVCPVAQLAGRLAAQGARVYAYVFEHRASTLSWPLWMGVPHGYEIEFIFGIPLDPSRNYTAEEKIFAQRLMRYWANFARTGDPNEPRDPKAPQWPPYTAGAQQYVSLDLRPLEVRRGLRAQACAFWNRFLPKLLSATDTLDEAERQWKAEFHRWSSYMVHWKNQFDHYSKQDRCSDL
Chain of BChE (P06276 29-602, species assumed): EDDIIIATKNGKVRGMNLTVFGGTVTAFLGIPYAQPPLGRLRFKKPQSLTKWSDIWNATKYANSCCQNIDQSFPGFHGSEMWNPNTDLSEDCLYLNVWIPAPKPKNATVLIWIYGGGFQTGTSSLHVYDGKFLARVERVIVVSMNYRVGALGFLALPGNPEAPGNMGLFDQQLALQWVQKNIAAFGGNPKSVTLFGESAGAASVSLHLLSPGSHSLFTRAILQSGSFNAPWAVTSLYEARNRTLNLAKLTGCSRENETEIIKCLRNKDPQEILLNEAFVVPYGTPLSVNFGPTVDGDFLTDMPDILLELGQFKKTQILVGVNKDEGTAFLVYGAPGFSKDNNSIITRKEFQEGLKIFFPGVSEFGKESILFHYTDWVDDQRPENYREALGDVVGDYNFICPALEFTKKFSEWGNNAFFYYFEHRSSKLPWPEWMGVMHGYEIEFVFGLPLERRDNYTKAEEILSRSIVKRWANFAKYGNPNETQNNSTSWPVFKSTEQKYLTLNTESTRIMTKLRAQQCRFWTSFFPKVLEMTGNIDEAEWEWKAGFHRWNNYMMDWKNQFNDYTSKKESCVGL

SMILES | IC50 ([1]; RAW264.7, read-out: iNOS IC50) [µM] | IC50 [2] [µM] | IC50 [3] [µM] | IC50 [4] [µM] | DPPH IC50 ([2]; extract, fractions and Trolox standard) [µg/mL] | IC50 [1, 5] [µM]
CC[C@H](/C=C/[C@@H](C)[C@H]1CC[C@H]2[C@@H]3CC=C4C[C@@H](O)CC[C@]4(C)[C@H]3CC[C@]12C)C(C)C [A2, stigmasterol] | 6.72 ± 0.08 | 16.4 ± 0.23 |  |  |  | 
CCCCCCCC/C=C\CCCCCCCC(N)=O [A1, 9-cis-octadecenamide] | 10.3 ± 0.12 | 21.67 ± 0.21 | 8.37 ± 0.1 | 9.29 ± 0.29 |  | 
Cc1c(C)c2c(c(C)c1O)CCC(C)(C(=O)O)O2 (stereo not drawn) [Trolox, 6-hydroxy-2,5,7,8-tetramethylchroman-2-carboxylic acid, reference compound] |  | 5.63 |  |  | 1.41 ± 0.08 | 
CCCCC/C=C/C=C/C(=O)NCCc1ccccc1 [A3, 2E, 4E-deca-2,4-dienoic acid 2-phenylethyl amide] |  | 17.73 ± 0.16 | 7.7 ± 0.26 | 8.65 ± 0.25 |  | 9.15 ± 0.12
CCCCC/C=C/C=C/C(=O)NCC(C)C [A4, deca-2E,4E-dienoic acid isobutylamide] | 11.4 ± 0.36 | 22.6 ± 0.41 |  |  |  | 
C=C1C(=O)O[C@H]2[C@H]1CC/C(C)=C/CC[C@@]1(C)O[C@@H]21 [Parthenolide, reference compound] |  |  |  |  |  | 4.1 ± 0.08

From paper PMC10655324, “Combinative effects of akarkara root-derived metabolites on anti-inflammatory and anti-alzheimer key enzymes: integrating bioassay-guided fractionation, GC-MS analysis, and in silico studies” (BMC Complementary Medicine and Therapies, 2023)
